Test [1] deals with collagen-induced aggregation (rabbit platelet plasma). Nature of the test: Platelet aggregation inhibitory action on collagen-induced aggregation. As to conditions: Oryctolagus cuniculus, 0.05 h, collagen 2.5 μg/ml, 37° C., 3 min incubation, hydrochloride salt, read-out: inhibition ratio, collagen-induced platelet aggregation. Format: cell-based. The procedure:
(§1) The pharmacological activity of the present compounds [1] is illustrated below. All the compounds [1] used in the pharmacological tests were tested in the form of the hydrochloride salt thereof.
(§2) 1. Platelet aggregation inhibition:
(§3) Sample solution containing a compound [1] (final concentration 500 or 100 μM) is added to rabbit platelet plasma to which was added 10% by volume of a 3.8% sodium citrate solution, and the mixture is incubated at 37° C. for 3 minutes. A platelet activation factor (PAF, final concentration 10-50 μg/ml) or collagen (final concentration 2.5 μg/ml) is added thereto as an aggregating agent, and platelet aggregation activity is measured with an aggregometer. The results of assays for PAF-induced aggregation are shown in Table 3, and those for collagen-induced aggregation are shown in Table 4, which tables show the strong platelet aggregation inhibitory activity of the compounds [1] of the present invention.

Test [2] relates to lipoperoxide generation in rat cerebrum. The experiment in a line: Antioxidant activity (inhibition of lipoperoxide generation, method of Stocks et al.). As to conditions: 100 μM; rat cerebrum supernatant, 37° C., 15 min, thiobarbituric acid, 532 nm; hydrochloride salt. The test is classed as biochemical. On the procedure:
as §1
Antioxidant activity is determined according to the method of Stocks et al. [Clin. Sci. Mol. Med., 47: 215 (1974)]. Rat cerebrum is added to ice-cooled 40 mM phosphate saline buffer solution (PBS) (pH 7.4, 4 ml buffer per 1 g cerebrum), homogenized and centrifuged (1000×g, 4° C., 10 min.) to obtain a supernatant solution. The supernatant solution is diluted fivefold with the above ice-cooled PBS solution, and to a 0.9 ml aliquot thereof is added a sample containing a compound [1] (0.1 ml, final concentration 100 μM) dissolved in ethanol. The resultant mixture is incubated at 37° C. for 15 minutes, 35% perchloric acid (0.2 ml) is added, and the mixture is ice-cooled to stop the reaction and centrifuged (1300×g, 4° C., 10 min.). 0.5 ml thiobarbituric acid (5 g/lit. of 50% acetic acid) is added to the supernatant solution (1 ml), so as to measure its absorbancy at 532 nm. The amount of lipoperoxide thus generated is expressed as an amount of malondialdehyde.

The subject of test [3] is PAF-induced aggregation (rabbit platelet plasma). The experiment in a line: Platelet aggregation inhibitory action on PAF-induced aggregation. Format: cell-based. As to conditions: Oryctolagus cuniculus, 0.05 h, PAF 10-50 μg/ml, 37° C., 3 min incubation, hydrochloride salt, read-out: inhibition ratio, PAF-induced platelet aggregation. The procedure: as §1, §2, §3
The test system of test [4] is blood flow, femoral artery / left back limb. Nature of the test: Vasodilation activity, changes in blood flow in perfused left back limb of anesthetized dog. Format: in vivo. As to conditions: 100 μg into right femoral artery; relative to increased blood flow by 30 μg papaverin intra-arterially = 100%; hydrochloride salt. The procedure:
as §1
2. Vasodilation activity:
A dog, pretreated with morphine (1.5 mg/kg, sc) is anesthesized with urethane (450 mg/kg, iv) and α-chloralose (45 mg/kg, iv), and immobilized in the dosal position. Right femoral arterial blood is introduced into a left femoral artery via a perfusion pump, and Sterling's resistance is connected to the exosomatic circulatory system to perfuse blood to a left back limb at constant pressure. The perfusion pressure is set at a value slightly higher than that of the average blood pressure of the animal. Sample (100 μg) dissolved in physiological saline solution is administered to a right femoral artery, and changes in blood flow are measured. Vasodilation activity is measured as a relative activity, by defining as 100% the increased rate of blood flow when 30 μg papaverin is administered intra-arterially. The results are shown in Table 5, where it will be seen that the compounds [1] of the present invention have strong vasodilation activity.

Test [5] deals with PAF-induced aggregation (rabbit platelet plasma). Nature of the test: Platelet aggregation inhibitory action on PAF-induced aggregation. Format: cell-based. Conditions: Oryctolagus cuniculus, 0.05 h, PAF 10-50 μg/ml, 37° C., 3 min incubation, hydrochloride salt, read-out: inhibition ratio, PAF-induced platelet aggregation. The source holds these as a separate data set.

The source of these data is patent publication US4894453A, “2-substituted alkoxy-3-substituted-pyrazines” (Toyo Jozo Kabushiki Kaisha, priority 1986, dated 1990).

As for `CCCCCCCCCc1nc2c(nc1OCCN1CCN(Cc3ccc(OC)cc3)CC1)CCCC2` [Compound 582], the inhibition at 100 µM in test [1] turned out to be 58%. The “inhibition ratio, lipoperoxide generation (antioxidant activity)” value (“inhibition ratio” for short) in test [2] was 82%.

Take `Cc1nc(C)c(OCC(=O)NCCN2CCN(Cc3ccccc3)CC2)nc1C` [Compound 136]: the inhibition at 100 µM in test [3] is 50%. Also, in test [4], the vasodilation activity is 204%.

Take `Cc1nc(C)c(OCC(=O)N2CCCCC2)nc1C` [Compound 067]: the inhibition at 300 µM in test [5] came to 53%.

As to `Cc1nc(C)c(OCC(=O)NCCN2CCN(Cc3ccc(Cl)cc3)CC2)nc1C` [Compound 135], in test [3] (500 μM), the inhibition at 500 µM is 77%. Also, the vasodilation activity in test [4] came to 242%.

As for `CCc1nc(CC(C)C)c(OCCN2CCN(Cc3ccccc3)CC2)nc1CC` [Compound 556], the inhibition at 100 µM in test [3] stood at 51%; in test [1], 40%.

Regarding `CCCCCCCCCCc1nc2c(nc1OCCN1CCN(CCCC)CC1)CCCC2` [Compound 587], the inhibition at 100 µM stood at 91% in test [3] and 79% in test [1]. Also, the “inhibition ratio” value in test [2] worked out at 65%.

Turning to `Cc1nc(C)c(OCC(=O)N2CCOCC2)nc1C` [Compound 075], in test [4], the vasodilation activity was found to be 89%.

In the case of `Cc1nc(C)c(OCC(=O)NCCN2CCN(Cc3ccccc3Cl)CC2)nc1C` [Compound 137], the inhibition at 100 µM in test [3] came out at 76%. In test [4], the vasodilation activity is listed as 216%.

With `CCCCCCCCc1nc2c(nc1OCCN1CCN(CCCC)CC1)CCCC2` [Compound 573], the results for the inhibition at 100 µM in test [3] and in test [1] were 86% and 58%, respectively. In test [2], the “inhibition ratio” value was found to be 56%.

With `Cc1nc(OCCN2CCCN(Cc3ccc(Cl)cc3)CC2)c(C(C)C)nc1C` [Compound 547], the inhibition at 100 µM in test [1] was 56%.

Turning to `CCCCCCCCCCc1nc2c(nc1OCCN1CCN(CCO)CC1)CCCC2` [Compound 588], the inhibition at 100 µM is 64% in test [3] and 78% in test [1]. The “inhibition ratio” value in test [2] is 65%.

Regarding `CCc1nc(OCCN2CCCCC2)c(C(C)C)nc1CC` [Compound 550], the inhibition at 100 µM amounted to 56% in test [3] and 85% in test [1].

For the compound `CCCCCc1nc2c(nc1OCCN1CCCN(Cc3ccc(F)cc3)CC1)CCCC2` [Compound 562], the inhibition at 100 µM in test [3] amounted to 45%. In addition, the “inhibition ratio” value in test [2] is recorded as 65%.

Turning to `CCCCCCCCCCCCc1nc2c(nc1OCCN1CCN(CCCC)CC1)CCCC2` [Compound 595], in test [3], the inhibition at 100 µM is 85%. For the same compound, in test [2], the “inhibition ratio” value stood at 70%.

Consider `CCCCCCCCCCc1nc2c(nc1OCCN1CCOCC1)CCCC2` [Compound 585], for which the inhibition at 100 µM in test [1] was 41%. Further, in test [2], the “inhibition ratio” value came to 62%.

As for `CCCCCCCCCc1nc2c(nc1OCCN1CCN(CCCC)CC1)CCCC2` [Compound 580], the inhibition at 100 µM in test [3] is 94%; in test [1] it was 80%. In addition, in test [2], the “inhibition ratio” value stood at 77%.
